Key:
Format in all cases: cell-based, C57BL/6 mice
[1] = system: mature PC (CD24-mid & LYZ+) and secretory precursor (CD24-hi) populations; assay: Flow cytometry profiling of organoids in 2.5-D (CD24, LYZ); conditions: 6-day ENR+CD+treatment, fraction of viable cells, n=3 bio. donors
Excerpt: Cells processed for flow cytometry were first gated to exclude potential debris or doublets (via widely accepted forward and side scatter gating), and subsequently gated for viability (via Zombie-violet viability dye exclusion), all viable cells were considered for CD24 & LYZ expression analysis. […] For flow cytometry profiling of the 6 validate small molecules, ISC-enriched ‘small clusters’ in 3D Matrigel culture were passaged to a “2.5D” 96-well plate culture system for six days of ENR, or ENR+CD+drug culture in the same manner as described previously with the exception of plating in 96-well plates prepared with a polymerized 70% Matrigel coating in each well. Plates were centrifuged at 50 g for 1 min at 4° C. to allow for cells to partially embed in Matrigel coating. Drugs were pinned into their respective wells using the Tecan from a drug stamp plate. Media was changed at day three, including pinning of the drug treatments. At day six, cells were washed 3× with basal media, then harvested from Matrigel by mechanical disruption in TrypLE Express to remove Matrigel and dissociate organoids to single cells. After vigorous pipetting and incubation at 37° C. for 20 mins, dissociated organoids were strained through a 96-well filter plate with a 30-40 μm filter (Pall) into an ultra low-bind 96-well plate (Costar) by centrifuging at 300×g for 3 mins at 4° C. The cell filtrate was centrifuged again at 300×g for 3 mins at 4° C. to pellet the cells. Cell pellets were resuspended in FACS buffer (2% FBS in PBS0), then transferred to an ultra low-bind 96-well plate for flow prep. Cells were stained with Zombie-violet viability dye (BioLegend) at 100× for viability staining and/or antibody staining solution. FITC-conjugated antibody for lysozyme and APC-conjugated antibody for CD24 were used at 100× dilution (BioLegend). Flow cytometry was performed using a LSR Fortessa (BD; Koch Institute Flow Cytometry Core at MIT). Flow cytometry data was analyzed using FlowJo X v10.1 software.

[2] = system: ENR+CD organoids; assay: Flow cytometry analysis, 3D culture, XPO1 inhibitors; conditions: 6-day ENR+CD organoids
Experimental: ISC-enriched organoids cultured in 3D Matrigel with ENRCV media were passaged to 24-well plate in 3D Matrigel with ENRCV. At day zero, media were replaced to ENRCD with or without indicated compounds, and media were replaced every other day. At day six, cells were washed with basal media, and then harvested from Matrigel by mechanical disruption in TrypLE Express (ThermoFisher, 12605010) to remove Matrigel and dissociate organoids to single cells. After vigorous pipetting and incubation at 37° C. for 20 min, dissociated organoids were strained through a 35 μm cell strainer into a tube (Falcon, 352235). The cell filtrate was centrifuged again at 300×g for 3 min at 4° C. to pellet the cells. Cell pellets were resuspended in FACS buffer (2% FBS in PBS), and then transferred to an ultra low-bind 96-well plate (Corning, 7007). Cells were stained with Zombie-violet viability dye (BioLegend, 423107) at 100× for viability staining and/or antibody staining solution. FITC-conjugated antibody for lysozyme (Dako, […]) and APC-conjugated antibody for CD24 (BioLegend, 138505) were used at 100× dilution. Flow cytometry was performed using an LSR Fortessa (BD; Koch Institute Flow Cytometry Core at MIT). The data were analyzed using FlowJo v10 software.

[3] = system: organoids differentiated under ENR+CV, ENR+CD, or ENR; assay: Western blotting for LYZ in organoids; conditions: six days in ENR+CV
Excerpt: ISC-enriched organoids cultured in 3D Matrigel with ENRCV media were passaged to 24-well plate in 3D Matrigel with ENRCV. At day zero, media were replaced to ENR or ENRCD with or without indicated compounds, and media were replaced every other day. At day six, cells were harvested from Matrigel by mechanical disruption and suspended in basal media. Cell pellets were lysed with Pierce® IP lysis buffer (ThermoFisher, 87787) containing Halt™ Protease Inhibitor Cocktail, EDTA-Free (ThermoFisher, 87785) after 3-minute centrifuge at 300×g at 4° C. Cell extracts were resolved by NuPAGE® SDS-PAGE Gel system (ThermoFisher) and electroblotted onto polyvinylidene difluoride membranes using Criterion™ Blotter (Biorad). The membranes were blocked with 2% Blotting-Grade Blocker (Biorad, 1706404) in TBS-T (50 mM Tris-HCl, 150 mM NaCl, and 0.1% Tween 20, pH 8.0) and then probed with appropriate antibodies. Detection was performed using ECL Select™ Western Blotting Detection Reagent (Amersham, 45-000-999) and ImageQuant LAS4000 (GE Healthcare).

[4] = system: ENR+CD and ENR organoid populations; assay: Population RNA-seq of organoids; conditions: 3 days of treatment, all media conditions controlled, FDR<0.01
Excerpt: To further assess the potential interaction of Wnt agonist CHIR99021 (C) and Notch inhibitor DAPT (D) with XPO1 inhibitors, we carried out an experiment where we assessed bulk organoid population transcriptomes (with RNA-seq) from multiple variations on growth media, XPO1 inhibitor, and duration of treatment (FIG. 12A). To characterize the resulting cell phenotypes, we used aggregate scores of geneset enrichment (based on module scoring as implemented in^7) from the in vivo Paneth and related enteroendocrine cell populations (genesets taken from^6). We see that again for both ENR+CD treated (FIG. 12B) and ENR treated (FIG. 12C) organoid populations, XPO1 inhibition drives enrichment in Paneth cell defining genes, principally at 3 days of treatment. […]
Population RNA-seq was performed using a derivative of the Smart-Seq2 protocol for single cells^1,2. […] Libraries were pooled post-Nextera and cleaned using Agencourt AMPure SPRI beads with successive 0.7× and 0.8× ratio SPRIs and sequenced with an Illumina 75 Cycle NextSeq500/550v2 kit (Illumina FC-404-2005) with loading density at 2.2 pM, with paired end 35 cycle read structure. Samples were sequenced at an average read depth of 8.44 million reads per sample and a total of 96 samples. […]

O=C(/C=C\n1cnc(-c2cc(C(F)(F)F)cc(C(F)(F)F)c2)n1)NNc1cnccn1 [KPT-330]
mature PC (CD24-mid & LYZ+) population relative to control [1]: statistically significant increase (adj. p<0.01)
secretory precursor (CD24-hi) population relative to control [1]: trend to a smaller population
Paneth cell representation by flow cytometry [2]: statistically significant increases in Paneth cell representation
LYZ abundance on a per-mass protein normalized basis (western blot) [3]: appreciably increase LYZ abundance
identity of the majority of significantly up-regulated genes relative to no treatment (DESeq2) [4]: known Paneth cell lineage-defining genes
